The values below come from patent US7384920B2, “Use of stilbene compounds in the manufacture of medicament for the prevention and treatment of diabetes or retrovirus-associated diseases” (priority 2001, dated 2008).

The test system of data set [1] is alloxan induced diabetic mice. In words: Hypoglycemic effect on glucose level of alloxan induced diabetic mice. It is filed as in vivo. As to conditions: for Postdosing glucose level / Predosing glucose level: alloxan diabetic KM male mice; for Predosing glucose level: before dosing. How it is done: The metformin or miglucan were used as positive control drugs. And the hypoglycemic effects were evaluated. Hypoglycemic effect of stilbene derivatives on glucose level of alloxan induced diabetic mice.
KM strain male mice which have been fasted for 5-8 hours are used and be injected intravenously of alloxan 80mg/Kg, and 72 hours later, selected those with glucose level>11.0 mmol/L as the diabetic model mice for drug evaluation. Compounds were administered pos for 12 days.

Another data set relates to HBeAg expression. As to the kind of experiment: Inhibition of HBeAg expression in 2.2.15 cells (ELISA of supernatant). As to conditions: 2.2.15 cells 10^5/ml. It is filed as cell-based. How it is done: Experimental method: use 10% DMEM(with G418 380 μg/ml)to cultivate 2.2.15 cells,
Add 1.5ml of 10^5 cell/ml to 24 well plate for cultivation, change the new cultivate fluid next day and add different amount of compound to it, cultivate each concentration of compound to 3 wells, then collect and freeze 200 μl of supernatant of 2.2.15 cell culture at day 2,4,6 cultivation. Measure HBeAg value of the supernatant by ELISA.
E3 are the same, OD optical density, IR inhibition rate, ctr control IR=[Ctr(P/N)−Agent(P/N)]/[Ctr(P/N)−2.1]

The test system of a further data set is mice. As to the kind of experiment: in vivo. It is filed as in vivo.
The subject of the next data set is normal rats. In words: Effect on glucose tolerance curve of normal rats. It is filed as in vivo. Further details: Auc (area under glucose tolerance curve): unit not given beside the values. As to conditions: for Glucose (fasted): fasted 8 hours; for Glucose after medication 0′: 0 h after ip glucose 2 g/Kg; for Glucose after medication 30′: 30 min after ip glucose 2 g/Kg; for Glucose after medication 60′: 60 min after ip glucose 2 g/Kg; for Glucose after medication 120′: 120 min after ip glucose 2 g/Kg; for Auc (area under glucose tolerance curve): ip glucose 2 g/Kg, 0-2 hours. On the procedure: In these experiments, stilbene derivatives in examples 1-5 are administrated respectively to KM male mice or Wistar male rats pos for 12 days , then test animals were fasted for 8 hours, examined glucose values, and administrated the test compound. One hour later, administered ip of glucose 2 g/Kg (1.11 mol/L glucose solution). Determining the glucose values at 0, ½, 1, 2 hours after glucose injection and calculating the area under this glucose tolerance curve.

Data set [2] is described as follows: Solubility in organic solvents (identification). It counts as physicochemical. As to conditions: organic solvents as named in the value.
A short description of a further data set: in vivo. It is filed as in vivo. As to conditions: mouse, in vivo, pos.
Where [3] appears, read: normal rats N=6, 75 mg/Kg pos 12 days.
The mark [4] stands for this setting: normal rats N=6, 150 mg/Kg pos 12 days.

Several values for one entry are separate records, joined by “and”; a condition that tells them apart may be missing. Equal entries are not always repeated.

Regarding “3,3′,4′,5-quadrahydroxystilbene-4′-O-β-D-glucopyranoside [Compound E1]”, the Postdosing glucose level is given as 21.10 ± 5.73 mmol/L in data set [1] (250 mg/kg pos for 12 days), 16.39 ± 5.32 mmol/L in data set [1] (500 mg/kg pos for 12 days) and 16.54 ± 5.48 mmol/L in data set [1] (1000 mg/kg pos for 12 days). The values for the Predosing glucose level in data set [1] (group 250 mg/kg), in data set [1] (group 500 mg/kg) and in data set [1] (group 1000 mg/kg) were 22.49 ± 4.63 mmol/L, 22.76 ± 3.17 mmol/L and 22.65 ± 3.55 mmol/L, respectively. The “IR (%) inhibition rate of HBeAg” value in the data set with HBeAg expression (10 μg/ml, Day 2) is given as 57.75%; with HBeAg expression (10 μg/ml, Day 4), 32.68%; with HBeAg expression (10 μg/ml, Day 6), 51.57%; in the data set on HBeAg expression (20 μg/ml, Day 2), 63.83%; in the data set on HBeAg expression (20 μg/ml, Day 4), −62.75%; in the data set with HBeAg expression (20 μg/ml, Day 6), 48.82%. Also, the “OD (HBeAg ELISA)” value with HBeAg expression (10 μg/ml, Day 2) came out at 0.244; in the data set with HBeAg expression (10 μg/ml, Day 4) it was 0.208; in the data set on HBeAg expression (10 μg/ml, Day 6) it was 0.228; with HBeAg expression (20 μg/ml, Day 2) it was 0.224; with HBeAg expression (20 μg/ml, Day 4), 0.354; in the data set with HBeAg expression (20 μg/ml, Day 6), 0.235.

On to `COc1cc(C=Cc2cc(O)cc(O[C@@H]3O[C@H](CO)[C@@H](O)[C@H](O)[C@H]3O)c2)ccc1O` [Compound E2, 3,4′,5-trihydroxy-3′-methyloxy stilbene-3-O-β-D glucoside], for which the Postdosing glucose level in data set [1] (250 mg/kg pos for 12 days) is reported as 22.61 ± 6.07 mmol/L; in data set [1] (500 mg/kg pos for 12 days) it was 28.96 ± 8.21 mmol/L; in data set [1] (1000 mg/kg pos for 12 days), 24.64 ± 2.49 mmol/L. In addition, the Predosing glucose level in data set [1] (group 250 mg/kg) came out at 21.43 ± 5.04 mmol/L; in data set [1] (group 500 mg/kg), 22.98 ± 5.94 mmol/L; in data set [1] (group 1000 mg/kg), 21.38 ± 5.75 mmol/L. Moreover, the MTD in the data set with mice (mice ♀, pos) is more than 16872 mg/kg; in the data set on mice (mice ♂, pos), more than 18301 mg/kg. The “Toxicity (in words)” value in the data set with mice (mice, pos, summary of Table 3) was “very low”. For the same compound, the “IR (%) inhibition rate of HBeAg” value with HBeAg expression (10 μg/ml, Day 2) was determined as 71.43%; in the data set with HBeAg expression (10 μg/ml, Day 4), 45.75%; in the data set on HBeAg expression (10 μg/ml, Day 6), 56.69%; in the data set with HBeAg expression (20 μg/ml, Day 2), 40.43%; in the data set with HBeAg expression (20 μg/ml, Day 4) it was 9.15%; in the data set with HBeAg expression (20 μg/ml, Day 6), 4.72%. Besides, the “OD (HBeAg ELISA)” value was determined as 0.199 with HBeAg expression (10 μg/ml, Day 2); 0.188 in the data set with HBeAg expression (10 μg/ml, Day 4); 0.251 in the data set on HBeAg expression (10 μg/ml, Day 6); 0.301 in the data set with HBeAg expression (20 μg/ml, Day 2); 0.244 in the data set with HBeAg expression (20 μg/ml, Day 4); 0.347 with HBeAg expression (20 μg/ml, Day 6).

Take `COc1ccc(C=Cc2cc(O)cc(O[C@@H]3O[C@H](CO)[C@@H](O)[C@H](O)[C@H]3O)c2)cc1` [Compound E3, 3,5-dihydroxy-4′-methyloxy stilbene-3-O-β-O-D glucoside]: the MTD is more than 11200 mg/kg in the data set on mice (mice ♀, pos) and more than 11000 mg/kg in the data set on mice (mice ♂, pos). In the data set with mice (mice, pos, summary of Table 3), the “Toxicity (in words)” value is on record as “very low”. Further, the “IR (%) inhibition rate of HBeAg” value is listed as 72.95% in the data set with HBeAg expression (10 μg/ml, Day 2); 39.87% with HBeAg expression (10 μg/ml, Day 4); 71.65% with HBeAg expression (10 μg/ml, Day 6); 51.37% in the data set on HBeAg expression (20 μg/ml, Day 2); 1.31% in the data set with HBeAg expression (20 μg/ml, Day 4); 48.43% in the data set with HBeAg expression (20 μg/ml, Day 6). For the same compound, the “OD (HBeAg ELISA)” value is given as 0.194 with HBeAg expression (10 μg/ml, Day 2); 0.197 in the data set with HBeAg expression (10 μg/ml, Day 4); 0.177 with HBeAg expression (10 μg/ml, Day 6); 0.265 in the data set on HBeAg expression (20 μg/ml, Day 2); 0.256 in the data set on HBeAg expression (20 μg/ml, Day 4); 0.236 with HBeAg expression (20 μg/ml, Day 6).

In data set [1] (75 mg/kg pos for 12 days), `OC[C@H]1OC(Oc2cc(O)cc(C=Cc3ccc(O)cc3)c2)[C@H](O)[C@@H](O)[C@@H]1O` (some centres unmarked) [Compound E5] displayed a Postdosing glucose level of 21.79 ± 9.39 mmol/L. The Postdosing glucose level in data set [1] (150 mg/kg pos for 12 days) is reported as 21.05 ± 4.63 mmol/L. In data set [1] (group 75 mg/kg), this compound yielded a Predosing glucose level of 17.46 ± 5.86 mmol/L. In data set [1] (group 150 mg/kg), this compound displayed a Predosing glucose level of 17.92 ± 5.35 mmol/L. Also, the “Glucose (fasted)” value with normal rats (setting [3]) was 4.6 ± 0.5 mmol/L. For the same compound, in the data set with normal rats (normal rats N=6, 75 mg/Kg), the “Glucose after medication 0′” value came out at 4.9 ± 0.7 mmol/L, the “Glucose after medication 30′” value was determined as 12.0 ± 1.5 mmol/L, the “Glucose after medication 60′” value amounted to 7.4 ± 0.8 mmol/L and the “Glucose after medication 120′” value turned out to be 6.7 ± 0.7 mmol/L. Besides, the “Auc (area under glucose tolerance curve)” value in the data set on normal rats (normal rats N=6, 75 mg/Kg) is 966.8 ± 71.6. For the same compound, the “Glucose (fasted)” value in the data set on normal rats (setting [4]) was found to be 4.7 ± 0.8 mmol/L. Moreover, in the data set with normal rats (normal rats N=6, 150 mg/Kg), the “Glucose after medication 0′” value came out at 4.3 ± 0.9 mmol/L, the “Glucose after medication 30′” value is given as 10.2 ± 1.5 mmol/L, the “Glucose after medication 60′” value is 6.3 ± 1.1 mmol/L and the “Glucose after medication 120′” value is given as 5.7 ± 1.1 mmol/L. The “Auc (area under glucose tolerance curve)” value with normal rats (normal rats N=6, 150 mg/Kg) was 836.3 ± 112.1. For the same compound, in the data set on mice (mouse, in vivo), the MTD was more than 10000 mg/kg and the “Toxicity (in words)” value was “very low”. The “Solubility (in words)” value in data set [2] is given as “easily soluble in acetone”.

For `Oc1ccc(/C=C/c2cc(O)cc(O)c2)cc1` [Compound E], the Postdosing glucose level in data set [1] (75 mg/kg pos for 12 days) is listed as 20.01 ± 7.1 mmol/L; in data set [1] (150 mg/kg pos for 12 days), 18.36 ± 6.25 mmol/L. Besides, the Predosing glucose level in data set [1] (group 75 mg/kg) is 17.27 ± 4.60 mmol/L; in data set [1] (group 150 mg/kg), 17.87 ± 4.86 mmol/L. Also, the “Glucose (fasted)” value in the data set with normal rats (setting [3]) stood at 5.3 ± 0.9 mmol/L; in the data set on normal rats (setting [4]), 5.8 ± 0.6 mmol/L. Further, the “Glucose after medication 0′” value with normal rats (normal rats N=6, 75 mg/Kg) is on record as 4.9 ± 0.7 mmol/L; with normal rats (normal rats N=6, 150 mg/Kg), 4.2 ± 0.4 mmol/L. The “Glucose after medication 30′” value in the data set on normal rats (normal rats N=6, 75 mg/Kg) is 12.1 ± 2.3 mmol/L; in the data set on normal rats (normal rats N=6, 150 mg/Kg), 9.5 ± 2.1 mmol/L. The “Glucose after medication 60′” value came out at 7.5 ± 0.8 mmol/L in the data set with normal rats (normal rats N=6, 75 mg/Kg) and 6.1 ± 1.2 mmol/L in the data set on normal rats (normal rats N=6, 150 mg/Kg). In addition, the “Glucose after medication 120′” value in the data set on normal rats (normal rats N=6, 75 mg/Kg) stood at 6.2 ± 0.9 mmol/L; in the data set on normal rats (normal rats N=6, 150 mg/Kg), 4.7 ± 0.7 mmol/L. Further, the “Auc (area under glucose tolerance curve)” value amounted to 961.1 ± 115.9 in the data set with normal rats (normal rats N=6, 75 mg/Kg) and 760.2 ± 119.6 with normal rats (normal rats N=6, 150 mg/Kg). Besides, the MTD was more than 6100 mg/kg in the data set “in vivo” (female, mice ♀) and more than 6000 mg/kg in “in vivo” (male, mice ♂). Besides, the “Toxicity (in words)” value in the data set with mice (mouse, in vivo) is listed as “very low”. Also, the “Solubility (in words)” value in data set [2] was “easily soluble in methyl alcohol, ethyl alcohol and acetone”.

Regarding `CN(C)C(=N)N=C(N)N` [Metformin, reference compound], the Postdosing glucose level in data set [1] (500 mg/kg pos for 12 days, 500 mg/kg) was 17.49 ± 5.33 mmol/L and 17.64 ± 1.00 mmol/L and 15.16 ± 8.53 mmol/L. Moreover, the Predosing glucose level in data set [1] (group 500 mg/kg) was 22.81 ± 4.89 mmol/L and 21.15 ± 3.85 mmol/L and 17.10 ± 4.84 mmol/L. Further, in data set [1] (alloxan induced diabetic mice, summary of Table 1), the “Hypoglycemic effect (in words)” value was “effective”.

`COc1ccc(Cl)cc1C(=O)NCCc1ccc(S(=O)(=O)NC(=O)NC2CCCCC2)cc1` [Miglucan, reference compound]: in the data set with normal rats (normal rats N=6, 100 mg/Kg), the “Glucose after medication 0′” value was 2.7 ± 0.8 mmol/L and 3.4 ± 0.4 mmol/L; the “Glucose after medication 30′” value was 11.5 ± 0.6 mmol/L and 8.7 ± 3.5 mmol/L; the “Glucose after medication 60′” value is 7.8 ± 6.2 mmol/L and 5.3 ± 2.1 mmol/L; the “Glucose after medication 120′” value is 4.1 ± 1.7 mmol/L and 3.8 ± 1.4 mmol/L. The “Auc (area under glucose tolerance curve)” value in the data set with normal rats (normal rats N=6, 100 mg/Kg) is 883.1 ± 43.5 and 663.8 ± 220.2.
